Where two headings read alike, the source gives them in different places.
Columns and labels:
Assay type in all cases: biochemical
[1] = target: T1, Axl (Homo sapiens, UniProt P30530); assay: Axl kinase inhibition IC50
T1 sequence (P30530 26-894): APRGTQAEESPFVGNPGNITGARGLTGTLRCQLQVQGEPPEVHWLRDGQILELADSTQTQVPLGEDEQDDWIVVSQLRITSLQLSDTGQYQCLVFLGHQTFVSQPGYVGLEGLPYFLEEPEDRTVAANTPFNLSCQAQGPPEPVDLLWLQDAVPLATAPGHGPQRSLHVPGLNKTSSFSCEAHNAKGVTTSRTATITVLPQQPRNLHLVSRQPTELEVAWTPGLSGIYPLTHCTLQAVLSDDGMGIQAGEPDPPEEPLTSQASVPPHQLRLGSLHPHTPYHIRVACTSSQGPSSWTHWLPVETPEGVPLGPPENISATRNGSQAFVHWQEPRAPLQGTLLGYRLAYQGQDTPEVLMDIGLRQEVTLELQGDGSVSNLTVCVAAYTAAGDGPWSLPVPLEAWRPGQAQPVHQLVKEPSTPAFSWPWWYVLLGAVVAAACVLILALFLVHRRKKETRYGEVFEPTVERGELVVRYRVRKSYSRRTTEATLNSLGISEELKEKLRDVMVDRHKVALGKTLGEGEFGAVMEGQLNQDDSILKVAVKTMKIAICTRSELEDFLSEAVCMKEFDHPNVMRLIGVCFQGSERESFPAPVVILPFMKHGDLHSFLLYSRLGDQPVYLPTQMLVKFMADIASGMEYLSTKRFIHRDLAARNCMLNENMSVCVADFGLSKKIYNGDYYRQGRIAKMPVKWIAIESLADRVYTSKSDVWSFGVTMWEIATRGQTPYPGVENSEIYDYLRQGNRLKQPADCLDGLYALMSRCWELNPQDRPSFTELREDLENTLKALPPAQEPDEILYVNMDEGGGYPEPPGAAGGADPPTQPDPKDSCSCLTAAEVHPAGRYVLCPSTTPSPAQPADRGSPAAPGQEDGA

[2] = target: T2, Tyro3 (Homo sapiens, UniProt Q06418); assay: Tyro3 kinase inhibition IC50
T2 sequence (Q06418 41-890): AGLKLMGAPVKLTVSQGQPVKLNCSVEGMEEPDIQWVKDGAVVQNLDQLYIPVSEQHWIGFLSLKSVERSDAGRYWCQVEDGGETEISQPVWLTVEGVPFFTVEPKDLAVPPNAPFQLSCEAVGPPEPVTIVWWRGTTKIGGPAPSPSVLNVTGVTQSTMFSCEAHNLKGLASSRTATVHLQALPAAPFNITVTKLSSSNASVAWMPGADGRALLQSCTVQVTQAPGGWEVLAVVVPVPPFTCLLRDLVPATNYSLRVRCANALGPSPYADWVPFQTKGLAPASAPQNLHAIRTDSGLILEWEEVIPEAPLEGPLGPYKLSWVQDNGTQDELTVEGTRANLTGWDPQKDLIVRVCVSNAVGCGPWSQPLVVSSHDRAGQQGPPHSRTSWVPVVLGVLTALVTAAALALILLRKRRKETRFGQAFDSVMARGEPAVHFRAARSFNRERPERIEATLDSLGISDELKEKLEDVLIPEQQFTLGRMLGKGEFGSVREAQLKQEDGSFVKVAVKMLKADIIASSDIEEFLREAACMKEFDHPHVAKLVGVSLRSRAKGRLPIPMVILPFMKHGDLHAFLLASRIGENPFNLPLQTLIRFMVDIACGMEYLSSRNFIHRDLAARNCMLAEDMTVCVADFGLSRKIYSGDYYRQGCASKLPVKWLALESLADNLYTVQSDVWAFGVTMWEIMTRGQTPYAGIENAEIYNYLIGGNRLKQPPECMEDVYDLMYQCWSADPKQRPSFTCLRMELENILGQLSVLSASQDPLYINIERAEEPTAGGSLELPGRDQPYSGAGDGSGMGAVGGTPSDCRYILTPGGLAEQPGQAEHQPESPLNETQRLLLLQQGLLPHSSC

[3] = target: T3, Mer (Homo sapiens, UniProt Q12866); assay: Mer kinase inhibition IC50; conditions: read-out: Mer IC50
T3 sequence (Q12866 21-999): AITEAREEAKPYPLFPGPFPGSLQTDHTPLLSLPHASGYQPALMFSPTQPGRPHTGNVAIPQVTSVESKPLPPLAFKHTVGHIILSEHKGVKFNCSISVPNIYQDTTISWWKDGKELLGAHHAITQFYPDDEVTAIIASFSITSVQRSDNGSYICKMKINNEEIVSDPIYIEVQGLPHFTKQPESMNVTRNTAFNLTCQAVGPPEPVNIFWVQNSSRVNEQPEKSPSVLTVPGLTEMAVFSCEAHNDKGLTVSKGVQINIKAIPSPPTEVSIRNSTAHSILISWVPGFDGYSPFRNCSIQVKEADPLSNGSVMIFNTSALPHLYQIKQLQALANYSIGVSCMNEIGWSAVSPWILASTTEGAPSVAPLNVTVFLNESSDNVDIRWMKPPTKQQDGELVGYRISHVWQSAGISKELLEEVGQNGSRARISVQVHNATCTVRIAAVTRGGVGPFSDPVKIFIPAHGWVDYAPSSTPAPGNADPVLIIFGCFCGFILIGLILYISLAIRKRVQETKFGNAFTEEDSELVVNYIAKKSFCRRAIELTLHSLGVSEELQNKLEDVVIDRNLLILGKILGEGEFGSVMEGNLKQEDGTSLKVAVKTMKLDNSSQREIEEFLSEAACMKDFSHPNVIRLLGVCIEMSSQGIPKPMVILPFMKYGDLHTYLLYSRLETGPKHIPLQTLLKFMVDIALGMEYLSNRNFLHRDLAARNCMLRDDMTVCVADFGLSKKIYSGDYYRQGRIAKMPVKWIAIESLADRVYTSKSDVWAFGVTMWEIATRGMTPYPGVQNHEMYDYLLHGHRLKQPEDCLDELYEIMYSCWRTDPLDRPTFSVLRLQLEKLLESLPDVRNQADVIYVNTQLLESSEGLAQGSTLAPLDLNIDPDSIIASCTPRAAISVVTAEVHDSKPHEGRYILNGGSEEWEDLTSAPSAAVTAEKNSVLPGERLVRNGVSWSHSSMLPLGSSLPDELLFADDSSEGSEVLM

Row | Compound | IC50 ([3]; Table 3) [nM] | IC50 ([1]; Table 3) [nM] | IC50 ([2]; Table 3, read-out: Tyro3 IC50) [nM] | other results
1 | O[C@H]1CC[C@H](Nc2nc(Nc3ccccc3)ncc2-c2ccccn2)CC1 [UNC3029A] | – | – | – | IC50 ([1]; Table 1): 100 to 1000 nM; IC50 ([2]; Table 1, read-out: Tyro3 IC50): < 10 nM
2 | CN(C)C(=O)c1ccnc(C#Cc2ccc(Nc3ncc(-c4ccccn4)c(N[C@H]4CC[C@H](O)CC4)n3)cc2)c1 [UNC3459A] | 10 to 100 | 1000 to 30000 | < 10 | –
3 | CN1CCN(Cc2ccc(-c3cnc(Nc4ccc(C#Cc5cc(N)ccn5)cc4)nc3N[C@H]3CC[C@H](O)CC3)cc2)CC1 [UNC3869A] | 10 to 100 | 1000 to 30000 | 100 to 1000 | –
4 | CC(=O)Nc1ccnc(C#Cc2ccc(Nc3ncc(-c4ccc(CN5CCN(C)CC5)cc4)c(N[C@H]4CC[C@H](O)CC4)n3)cc2)c1 [UNC3874A] | 10 to 100 | 100 to 1000 | 10 to 100 | –
5 | CC(C)C(=O)Nc1ccnc(C#Cc2ccc(Nc3ncc(-c4ccccc4)c(N[C@H]4CC[C@H](O)CC4)n3)cc2)c1 [UNC4041A] | 10 to 100 | 100 to 1000 | 10 to 100 | –
6 | CC(C)C(=O)Nc1ccnc(C#Cc2ccc(Nc3ncc(-c4ccc(CN5CCN(C)CC5)cc4)c(N[C@H]4CC[C@H](O)CC4)n3)c(Cl)c2)c1 [UNC4046A] | 10 to 100 | < 10 | 10 to 100 | –
7 | Cc1cc(C#Cc2cc(NC(=O)C(C)C)ccn2)ccc1Nc1ncc(-c2ccc(CN3CCN(C)CC3)cc2)c(N[C@H]2CC[C@H](O)CC2)n1 [UNC4048A] | 10 to 100 | 100 to 1000 | 10 to 100 | –
8 | O[C@H]1CC[C@H](Nc2nc(Nc3ccc(C#Cc4cc(-c5ncc[nH]5)ccn4)cc3)ncc2-c2ccccn2)CC1 [UNC4357A] | – | – | – | IC50 ([3]; Table 4): 100 to 1000 nM; IC50 ([1]; Table 4): 1000 to 30000 nM; IC50 ([2]; Table 4, read-out: Tryo3 IC50): 100 to 1000 nM
9 | O[C@H]1CC[C@H](Nc2nc(Nc3ccc(C#Cc4cc(-c5ccn[nH]5)ccn4)cc3)ncc2-c2ccccn2)CC1 [UNC4360A] | – | – | – | IC50 ([3]; Table 4): 100 to 1000 nM; IC50 ([1]; Table 4): 1000 to 30000 nM; IC50 ([2]; Table 4, read-out: Tryo3 IC50): 100 to 1000 nM
10 | O[C@H]1CC[C@H](Nc2nc(Nc3ccc(C#Cc4cc(-c5cccnc5)ccn4)cc3)ncc2-c2ccccn2)CC1 [UNC4361A] | – | – | – | IC50 ([3]; Table 4): 100 to 1000 nM; IC50 ([1]; Table 4): 100 to 1000 nM; IC50 ([2]; Table 4, read-out: Tryo3 IC50): 100 to 1000 nM
11 | O[C@H]1CC[C@H](Nc2nc(Nc3ccc(C#Cc4cc(-c5cncnc5)ccn4)cc3)ncc2-c2ccccn2)CC1 [UNC4362A] | – | – | – | IC50 ([3]; Table 4): 10 to 100 nM; IC50 ([1]; Table 4): 100 to 1000 nM; IC50 ([2]; Table 4, read-out: Tryo3 IC50): 100 to 1000 nM
12 | CN1CCN(Cc2ccc(-c3ccc(Nc4ncc(-c5ccccn5)c(N[C@H]5CC[C@H](O)CC5)n4)cc3)cc2)CC1 [UNC4437A] | – | – | – | IC50 ([3]; Table 2): 100 to 1000 nM

Now from value to compound, other results behind:

Row | IC50 ([3]; Table 3) [nM] | IC50 ([1]; Table 3) [nM] | IC50 ([2]; Table 3, read-out: Tyro3 IC50) [nM] | Compound | other results
13 | 10 to 100 | 100 to 1000 | – | CN1CCN(Cc2ccc(-c3cnc(Nc4ccc(C#Cc5cc(C6OCCO6)ccn5)cc4)nc3N[C@H]3CC[C@H](O)CC3)cc2)CC1 [UNC3437A] | –
14 | 10 to 100 | 10 to 100 | 100 to 1000 | NS(=O)(=O)c1ccc(-c2cnc(Nc3ccc(C#Cc4cc(C(=O)NC5CC5)ccn4)cc3)nc2N[C@H]2CC[C@H](O)CC2)nc1 [UNC3457A] | –
15 | < 10 | < 10 | < 10 | CCNC(=O)c1ccnc(C#Cc2ccc(Nc3ncc(-c4ccccn4)c(N[C@H]4CC[C@H](O)CC4)n3)cc2)c1 [UNC3458A] | –
16 | < 10 | 100 to 1000 | < 10 | O=S(=O)(c1ccc(-c2cnc(Nc3ccc(C#Cc4cc(C5OCCO5)ccn4)cc3)nc2N[C@H]2CC[C@H](O)CC2)nc1)N1CCOCC1 [UNC3619A] | –
17 | < 10 | < 10 | < 10 | CN1CCN(Cc2ccc(-c3cnc(Nc4ccc(C#Cc5cc(NC(=O)C6CC6)ccn5)cc4)nc3N[C@H]3CC[C@H](O)CC3)cc2)CC1 [UNC3622A] | –
18 | < 10 | 10 to 100 | 10 to 100 | CN1CCN(Cc2ccc(-c3cnc(Nc4ccc(C#Cc5cc(NC(=O)c6ccccc6)ccn5)cc4)nc3N[C@H]3CC[C@H](O)CC3)cc2)CC1 [UNC3868A] | –
19 | < 10 | < 10 | < 10 | CC(C)C(=O)Nc1ccnc(C#Cc2ccc(Nc3ncc(-c4ccc(CN5CCN(C)CC5)cc4)c(N[C@H]4CC[C@H](O)CC4)n3)cc2)c1 [UNC3870A] | –
20 | < 10 | 10 to 100 | < 10 | CN1CCN(Cc2ccc(-c3cnc(Nc4ccc(C#Cc5cc(NC(=O)C6CCC6)ccn5)cc4)nc3N[C@H]3CC[C@H](O)CC3)cc2)CC1 [UNC3871A] | –
21 | < 10 | < 10 | < 10 | CN1CCN(Cc2ccc(-c3cnc(Nc4ccc(C#Cc5cc(NC(=O)C6CCCC6)ccn5)cc4)nc3N[C@H]3CC[C@H](O)CC3)cc2)CC1 [UNC3872A] | –
22 | < 10 | 10 to 100 | 10 to 100 | CN1CCN(Cc2ccc(-c3cnc(Nc4ccc(C#Cc5cc(NC(=O)C6CCCCC6)ccn5)cc4)nc3N[C@H]3CC[C@H](O)CC3)cc2)CC1 [UNC3873A] | –
23 | < 10 | 100 to 1000 | < 10 | CC(C)C(=O)Nc1ccnc(C#Cc2ccc(Nc3ncc(-c4ccc(CN5CCN(C)CC5)cc4)c(N[C@H]4CC[C@H](O)CC4)n3)c(F)c2)c1 [UNC4040A] | –
24 | < 10 | < 10 | < 10 | CC(C)C(=O)Nc1ccnc(C#Cc2ccc(Nc3ncc(-c4ccccn4)c(N[C@H]4CC[C@H](O)CC4)n3)cc2)c1 [UNC4042A] | –
25 | < 10 | 10 to 100 | < 10 | CC(C)C(=O)Nc1ccnc(C#Cc2ccc(Nc3ncc(-c4ccncc4)c(N[C@H]4CC[C@H](O)CC4)n3)cc2)c1 [UNC4043A] | –
26 | < 10 | < 10 | < 10 | Cc1cc(Nc2ncc(-c3ccc(CN4CCN(C)CC4)cc3)c(N[C@H]3CC[C@H](O)CC3)n2)ccc1C#Cc1cc(NC(=O)C(C)C)ccn1 [UNC4044A] | –
27 | < 10 | < 10 | < 10 | CC(C)C(=O)Nc1ccnc(C#Cc2ccc(Nc3ncc(-c4ccc(CN5CCN(C)CC5)cc4)c(N[C@H]4CC[C@H](O)CC4)n3)cc2F)c1 [UNC4045A] | –
28 | < 10 | < 10 | < 10 | CC(C)C(=O)Nc1ccnc(C#Cc2ccc(Nc3ncc(-c4ccc(CN5CCN(C)CC5)cc4)c(N[C@H]4CC[C@H](O)CC4)n3)cc2Cl)c1 [UNC4047A] | –

From US10526309B2, “Pan-TAM inhibitors and Mer/Axl dual inhibitors” (The University of North Carolina at Chapel Hill, priority 2015, dated 2020)
